The first test has as its target T1, FLAG-tagged PRMT6 (Homo sapiens, UniProt Q96LA8).
T1 construct: The complete ORFs of human PRMT3 and PRMT6 were inserted; made in house; host or cells: Sf9 insect cells (baculovirus)
Briefly: Fluorescence-based in vitro PRMT assay (F-PRMT assay), PRMT6. The following applies: Table S2; 100 µM compound, vs solvent control = 100%, n=3; racemates used. In kind it is biochemical. From the text:
To evaluate the effects of the selected candidate molecules on the catalytic activity of type I enzymes, we employed a quantitative fluorescence-based in vitro PRMT activity (F-PRMT) assay using recombinant FLAG-tagged PRMT proteins expressed and affinity-purified from baculovirus-infected Sf9 cells (SI Figure S1, SI Figure S2A).
Human cell lines (PaTu8988T, PANC-1) were obtained from ATCC (American Type Culture Collection) and cultured in DMEM supplemented with 10% fetal calf serum (FCS, Gibco/BRL), 1% penicillin/streptomycin at 37 °C and 5% CO2. […] For PRMT1 inhibition, cells were treated with type I PRMT inhibitor MS023 hydrochloride (Biomol). For induction of genotoxic stress, cells were treated with gemcitabine (LC Laboratories). […] The following plasmids were used: pFASTBAC-FLAG-rat PRMT1, pFASTBAC-FLAG-mouse PRMT4, and pGEX-GAR. The complete ORFs of human PRMT3 and PRMT6 were inserted into the pFASTBAC HT-3xFLAG B vector via BamHI/HindIII and BamHI/XhoI sites, respectively.
For PRMT protein expression in insect cells, recombinant baculovirus (bacmid) was generated using the Bac-to-Bac baculovirus system (Invitrogen). Sf9 cells were transfected with bacmid DNA using X-tremeGENE HP DNA transfection reagent (Sigma-Aldrich) according to the manufacturer's instructions. After 3–5 days, supernatants were collected, filtered, and used to infect Sf9 cells to amplify the virus. After 2 rounds of virus amplification and estimation of the final P3 virus titer, the P3 virus (2–5 μL/10^6 cells) was applied for large-scale infection of 200 × 10^6 Sf9 cells in suspension culture at a density of 1 × 10^6 cells/mL. Cells were harvested 5–6 days post-infection by centrifugation at 500 g for 5 min at room temperature. Protein purification from baculovirus-infected Sf9 cells was performed as previously described. , Cells were lysed in BC buffer (20 mM HEPES pH 7.9, 250 mM NaCl, 10% (v/v) glycerin, 0.4 mM EDTA, 1 mM DTT) containing a protease inhibitor cocktail (Roche) by 3 freeze-thaw cycles. After centrifugation at 11,000 rpm (Sorval SS34 rotor) and 4 °C for 1 h, the supernatant (whole cell protein extract) was incubated with anti-FLAG M2 Affinity Gel (Cytiva) at 4 °C and under agitation for 4 h. Subsequently, beads were washed in BC buffer containing various NaCl concentrations (once in BC with 1 M NaCl, twice in BC with 500 mM NaCl, twice in BC with 250 mM NaCl and twice in BC with 100 mM NaCl). FLAG-tagged proteins were either maintained bead-bound as a 50% (v/v) slurry in BC buffer with 100 mM NaCl and stored at −80 °C or were eluted in the appropriate elution buffer (depending on the subsequent assay) containing 0.25 mg/mL 3xFLAG peptides (Sigma-Aldrich) at 4 °C for 30–45 min. To remove the FLAG-peptides from the eluate, dialysis was performed in elution buffer containing 10% (v/v) glycerol at 4 °C for 4–6 h using Slide-A-Lyzer Dialysis Devices (Thermo Fisher Scientific) according to the manufacturer’s recommendations.
In the first step, the fluorogenic substrate Nα-Benzoyl-L-arginine-7-amido-4-methylcoumarin (Bz-Arg-AMC, Sigma-Aldrich) undergoes methylation by PRMTs upon the addition of the cofactor SAM. In the second reaction step, trypsin cleaves the nonmethylated substrate, leading to the generation of the 7-amino-4-methylcoumarin product, which can be quantified by subsequent fluorescence measurement (excitation: 355 nm, emission: 460 nm). The first reaction was conducted with bead-bound PRMTs at a total volume of 100 μL. Each condition was performed as a technical triplicate to determine the mean and the standard deviation. […] For the negative controls, SAM was substituted with assay buffer. The incubation was continued at 37 °C and under agitation (1,000 rpm) for a duration of 2 h.
T1 sequence (Q96LA8 whole entry): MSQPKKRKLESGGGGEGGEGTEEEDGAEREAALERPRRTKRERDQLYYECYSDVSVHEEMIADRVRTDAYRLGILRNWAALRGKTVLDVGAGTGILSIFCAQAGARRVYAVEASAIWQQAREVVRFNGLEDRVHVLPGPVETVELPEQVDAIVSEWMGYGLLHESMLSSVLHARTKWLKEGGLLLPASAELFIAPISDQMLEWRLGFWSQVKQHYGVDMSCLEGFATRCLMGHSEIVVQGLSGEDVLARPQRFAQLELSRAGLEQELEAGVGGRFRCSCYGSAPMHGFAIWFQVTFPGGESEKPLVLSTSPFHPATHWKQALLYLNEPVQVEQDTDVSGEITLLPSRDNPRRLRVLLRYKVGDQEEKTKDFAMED
`CN1CCC[C@H]1CCn1ccnc1-c1ccc2nonc2c1` (racemic) [Compound K002FT007]: the “Experimental result (PRMT6)” value was “n.e. (did not significantly affect the catalytic activity of the intended PRMT (less than ±6% change or not significant p-value), are marked with n.e. (no effect))”. On to `NCCCCNCc1cc(Br)cs1` [Compound K002JS012], for which the “Experimental result (PRMT6)” value is recorded as “n.e. (did not significantly affect the catalytic activity of the intended PRMT (less than ±6% change or not significant p-value), are marked with n.e. (no effect))”. Take `CNCC(=O)NCCc1ccc(OC)c(OC)c1` [Compound K002JS002]: the “Experimental result (PRMT6)” value is listed as “n.e. (did not significantly affect the catalytic activity of the intended PRMT (less than ±6% change or not significant p-value), are marked with n.e. (no effect))”. As for `CCc1c(-c2cccc3ccccc23)nc2ccc(NC(=O)CN)cn12` [Compound K002FT014], the “Experimental result (PRMT6)” value is on record as “n.e. (did not significantly affect the catalytic activity of the intended PRMT (less than ±6% change or not significant p-value), are marked with n.e. (no effect))”. For the compound `CN1CC[C@@](O)(CNCCc2cccc(OC(F)(F)F)c2)C1` (racemic) [Compound K600JK012], the “Experimental result (PRMT6)” value is reported as “n.e. (did not significantly affect the catalytic activity of the intended PRMT (less than ±6% change or not significant p-value), are marked with n.e. (no effect))”.

Turning to `CC(C)(C)c1cccc(OCCNC2CC(CN)C2)c1` (stereo not drawn) [Compound K600JK008], the “Experimental result (PRMT6)” value was “n.e. (did not significantly affect the catalytic activity of the intended PRMT (less than ±6% change or not significant p-value), are marked with n.e. (no effect))”.

In the case of `COc1cc(CNCCO)ccc1Oc1nnnn1-c1ccccc1` [Compound K002FT006], the “Experimental result (PRMT6)” value is listed as “n.e. (did not significantly affect the catalytic activity of the intended PRMT (less than ±6% change or not significant p-value), are marked with n.e. (no effect))”. As to `CN(C)CCNc1ncnc2cc(-c3ccc(F)cc3)sc12` [Compound K002FT005], the “Experimental result (PRMT6)” value was “n.e. (did not significantly affect the catalytic activity of the intended PRMT (less than ±6% change or not significant p-value), are marked with n.e. (no effect))”. Same read-out and setting: with `Clc1ccc(N2CCN(c3ncnc4[nH]ccc34)CC2)nc1` [Compound K002FT013] the entry was “n.e. (did not significantly affect the catalytic activity of the intended PRMT (less than ±6% change or not significant p-value), are marked with n.e. (no effect))”; with `OC1(c2c[nH]nn2)CCN(CCOc2ccc(Cl)cc2)C1` (stereo not drawn) [Compound K002JS017], “n.e. (did not significantly affect the catalytic activity of the intended PRMT (less than ±6% change or not significant p-value), are marked with n.e. (no effect))”.

For `CNCCNC(=O)NC[C@@]12CNC[C@@]1(C(F)(F)F)C2` (racemic) [Compound K600JK013], the “Experimental result (PRMT6)” value is listed as “n.e. (did not significantly affect the catalytic activity of the intended PRMT (less than ±6% change or not significant p-value), are marked with n.e. (no effect))”. Consider `COc1cc(CNC(C)C)ccc1OCc1nc(C)no1` [Compound K002JS018], for which the “Experimental result (PRMT6)” value is on record as “n.e. (did not significantly affect the catalytic activity of the intended PRMT (less than ±6% change or not significant p-value), are marked with n.e. (no effect))”.

`c1ccc2oc(C3CCN(Cc4c[nH]cn4)CC3)nc2c1` [Compound K002FT015]: the “Experimental result (PRMT6)” value is “n.e. (did not significantly affect the catalytic activity of the intended PRMT (less than ±6% change or not significant p-value), are marked with n.e. (no effect))”. `COc1cccc(NC(=O)CNCCC(N)=O)c1` [Compound K002JS005]: the “Experimental result (PRMT6)” value is reported as “n.e. (did not significantly affect the catalytic activity of the intended PRMT (less than ±6% change or not significant p-value), are marked with n.e. (no effect))”.

The same test, now with this note: Table S2; 100 µM compound; mean % difference vs solvent control (100%), n=3.
As to `Cc1cc(NCCc2nc(C)cc(=O)[nH]2)nc(N2CCCCC2)n1` [Compound K002FT008], the “Efficacy ±∆% (PRMT6)” value is recorded as -10%.

The values above are taken from publication PMC13576449, “Small-Molecule Activators of PRMT1: Discovery, SAR Analyses, and Proapoptotic Effects in Pancreatic Cancer Cells” (Journal of Medicinal Chemistry, 2026).
